≈ marks a conversion by molar mass, not a printed value. *1 amine or outer side, *2 acyl side, *3 side chain or, on linkers, in order; H or OH if unused. Where a SMILES comes first, the peptide text is derived from it. The star is where a group is joined. ξ: configuration not given here. DAMPA = CN(Cc1cnc2nc(N)nc(N)c2n1)c1ccc(C(=O)*)cc1; ξγGlu = O=C(O)C(CCC(=O)[*:2])N[*:1]
Tests used:
MCF7 [1] = experiment: Antitumor activity against human MCF7 cells xenografted in BALB/c nude mouse assessed as tumor growth inhibition at 200 mg/kg, ip administered every other day for 2 weeks relative to control; type: functional; details: 336 h, read-out: TGI
MDA-MB-231 [2] = experiment: Cytotoxicity against human MDA-MB-231 cells incubated for 30 mins by CellTiter-Glo luminescent Cell viability assay; type: functional, cell-based; details: MDA-MB-231, 0.5 h
MCF7 [3] = experiment: Synergistic antitumor activity against human MCF7 cells xenografted in BALB/c nude mouse assessed as tumor growth inhibition at 50 mg/kg, ip administered once per week for 2 weeks in presence of AICA riboside relative to control; type: functional; details: 336 h, read-out: TGI
[4] = Aqueous solubility of compound; type: physicochemical; details: aqueous medium
MCF7 [5] = experiment: Antiproliferative activity against human MCF7 assessed as reduction in cell number at 10 uM measured after 6 days in presence of 100 uM AICAR by sulforhodamine B assay relative to control; type: functional; set-up: scale not given: the % may be the effect or the level left; details: time 6 day
[6] = Blood brain barrier permeability in iv dosed human; type: ADME, organism-based
MDA-MB-231 [7] = experiment: Synergistic antiproliferative activity against human MDA-MB-231 cells assessed as cell survival rate at 10 uM incubated for 72 hrs in presence of alpha-tocopherol measured every 24 hrs by MTT assay relative to control; type: functional; details: read-out: Survival
MCF7 [8] = experiment: Antineoplastic activity against human MCF7 cells incubated for 72 hrs by prestoblue reduction assay; type: functional, cell-based; details: MCF7, 72 h
MCF7 [9] = experiment: Antitumor activity against human MCF7 cells xenografted in BALB/c nude mouse assessed as tumor growth inhibition at 50 mg/kg, ip administered once per week for 2 weeks relative to control; type: functional; details: 336 h, read-out: TGI
[10] = Half life in plasma (unknown origin); type: ADME, cell-free
Albumin = Albumin (Homo sapiens, UniProt P02768); experiment: Binding affinity to human serum albumin by Scatchard plot; type: ADME, cell-free
MCF7 [11] = experiment: Cytotoxicity against human MCF7 cells incubated for 72 hrs by SRB assay; type: functional, cell-based; details: MCF7, 72 h
[12] = Oral bioavailability in pediatric patient at > 40 mg/m2; type: ADME, organism-based; details: human, in vivo
MDA-MB-231 [13] = experiment: Synergistic antiproliferative activity against human MDA-MB-231 cells assessed as cell survival rate at 0.1 uM incubated for 72 hrs in presence of alpha-tocopherol measured every 24 hrs by MTT assay relative to control; type: functional; details: read-out: Survival
[14] = Drug metabolism in human assessed as carboxypeptidase-G2 (unknown origin)- mediated drug conversion to DAMPA and glutamate; type: ADME
[15] = Drug excretion in patient bile at 10 mg/m2, po by HPLC method; type: ADME, organism-based; details: human, read-out: Drug excretion
[16] = Oral bioavailability in pediatric patient at <= 40 mg/m2; type: ADME, organism-based; details: human, in vivo

Chain of Albumin (P02768 whole entry): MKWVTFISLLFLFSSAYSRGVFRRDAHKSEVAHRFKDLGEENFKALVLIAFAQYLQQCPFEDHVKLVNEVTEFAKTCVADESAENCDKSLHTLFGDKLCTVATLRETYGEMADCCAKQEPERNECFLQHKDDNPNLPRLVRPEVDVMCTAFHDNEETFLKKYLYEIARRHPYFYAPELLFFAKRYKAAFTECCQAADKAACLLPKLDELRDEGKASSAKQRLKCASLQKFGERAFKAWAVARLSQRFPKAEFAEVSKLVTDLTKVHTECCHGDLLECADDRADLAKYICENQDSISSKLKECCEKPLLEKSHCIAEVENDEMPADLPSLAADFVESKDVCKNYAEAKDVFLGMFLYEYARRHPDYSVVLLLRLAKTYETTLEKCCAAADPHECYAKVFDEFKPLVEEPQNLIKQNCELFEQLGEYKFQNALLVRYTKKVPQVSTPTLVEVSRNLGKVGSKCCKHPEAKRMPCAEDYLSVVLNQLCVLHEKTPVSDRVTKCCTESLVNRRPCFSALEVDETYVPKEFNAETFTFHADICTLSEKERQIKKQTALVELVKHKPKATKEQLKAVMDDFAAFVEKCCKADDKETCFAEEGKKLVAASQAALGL

With `NC(=O)c1ncn([C@@H]2O[C@H](CO)[C@@H](O)[C@H]2O)c1N` [ACADESINE] the inhibition in vivo at 200 mg/kg (MCF7 [1]) was 42.2%.
For `CC[C@H](C)[C@H](NC(=O)[C@H](C)NC(=O)[C@@H](NC(=O)[C@H](Cc1ccc(O)cc1)NC(=O)CNC(=O)CCC(NC(=O)c1ccc(N(C)Cc2cnc3nc(N)nc(N)c3n2)cc1)C(=O)O)[C@@H](C)O)C(=O)N[C@@H](C)C(=O)N[C@@H](Cc1c[nH]c2ccccc12)C(=O)N[C@H](C(=O)N[C@@H](CCCCN)C(=O)N[C@@H](C)C(=O)N[C@@H](Cc1ccccc1)C(=O)N[C@H](C(=O)N[C@@H](CCCNC(=N)N)C(=O)N[C@@H](CCCCN)C(=O)N[C@@H](CC(C)C)C(=O)N[C@@H](CCCNC(=N)N)C(=O)N[C@@H](CCCCN)C(N)=O)[C@@H](C)CC)C(C)C` (stereo partly drawn) ({DAMPA-ξγGlu}-GYTAIAWVKAFIRKLRK-NH2), the EC50 (MDA-MB-231 [2]) was 3800 nM.
`CN(Cc1cnc2nc(N)nc(N)c2n1)c1ccc(C(=O)N[C@@H](CCC(=O)O)C(=O)O)cc1` [METHOTREXATE] gave an inhibition in vivo at 50 mg/kg (MCF7 [3]) of 79.9%, a solubility [4] of 10 µg/mL (≈ 22 µM) and an Activity (MCF7 [5]) of 50%. The pBBB [6] was 1.7%, the viability at 10 µM (MDA-MB-231 [7]) was 35% and the IC50 (MCF7 [8]) was 15 nM. The inhibition in vivo at 50 mg/kg (MCF7 [9]) was 55%, the half-life [10] was 2 h and the K (Albumin) was 820 M⁻¹. For the same compound, the IC50 (MCF7 [11]) was > 22000 nM, the bioavailability [12] was 18% and the viability at 0.1 µM (MDA-MB-231 [13]) was > 60%. The Drug metabolism [14] was > 98%, the dose excreted [15] was 8.7% and the bioavailability [16] was 42%.
`COc1cccc2c1C(=O)c1c(O)c3c(c(O)c1C2=O)C[C@@](O)(C(=O)CO)C[C@@H]3O[C@H]1C[C@H](N)[C@@H](O)[C@H](C)O1` [EPIRUBICIN] showed an IC50 (MCF7 [11]) of 550 nM.

Source: ChEMBL document CHEMBL4673179 (RSC Med Chem, 2020)
